Reference: PubChem BioAssay AID254 (DTP/NCI, 2004)
Where “and” joins values, the source holds several entries; their conditions need not be identical. Equal entries are not always repeated. Inconclusive results and toxic doses are left out.

System: L1210 leukemia iv in BDF1 mice, survival T/C
Assay: NCI In Vivo Anticancer Drug Screen. Data for tumor model L1210 Leukemia (intravenous) in B6D2F1 (BDF1) mice
Settings: endpoint: mean survival time, higher = longer survival
Procedure: The antitumor activity of compounds was measured in mice bearing transplantable tumors. Survival or tumor size were measured and the results are expressed as the measurement made in the treated group (T) divided by the measurement made in the vehicle treated control group (C). The tumor model used in this assay is L1210 Leukemia (intravenous) in B6D2F1 (BDF1) mice

[1] = dose: 15.0 mg/kg/injection, schedule: Q01DX001 (ip), vehicle: other
[2] = dose: 20.0 mg/kg/injection, schedule: Q04DX004 (ip), vehicle: other
[3] = dose: 30.0 mg/kg/injection, schedule: Q01DX001 (ip), vehicle: other
[4] = dose: 30.0 mg/kg/injection, schedule: Q04DX004 (ip), vehicle: other
[5] = dose: 90.0 mg/kg/injection, schedule: Q01DX001 (ip), vehicle: other

With `O=c1[nH]c(=O)n(C2CC(O)C(CO)O2)cc1F` (stereo not drawn) the T/C (dose: 400.0 mg/kg/injection, schedule: Q01DX001 (ip), vehicle: saline) was 122 % of control.

In the case of `CN(Cc1cnc2nc(N)nc(N)c2n1)c1ccc(C(=O)N[C@@H](CCC(=O)O)C(=O)O)cc1`, the T/C (dose: 0.3 mg/kg/injection, schedule: Q01DX008 (ip), vehicle: other) is reported as 110 % of control, the T/C (dose: 0.3 mg/kg/injection, schedule: Q01HX008 (ip), vehicle: other) is reported as 121 % of control and the T/C (dose: 0.3 mg/kg/injection, schedule: Q03HX008 (ip), vehicle: other) is reported as 118 % of control. The T/C (dose: 0.3 mg/kg/injection, schedule: Q06HX008 (ip), vehicle: other) was 116 % of control, the T/C (dose: 0.3 mg/kg/injection, schedule: Q12HX008 (ip), vehicle: other) was 115 % of control and the T/C (dose: 0.4 mg/kg/injection, schedule: Q01DX008 (ip), vehicle: other) was 121 % of control. For the same molecule, the T/C (dose: 0.4 mg/kg/injection, schedule: Q01HX008 (ip), vehicle: other) was 119 % of control, the T/C (dose: 0.4 mg/kg/injection, schedule: Q03HX008 (ip), vehicle: other) was 119 % of control and the T/C (dose: 0.4 mg/kg/injection, schedule: Q06HX008 (ip), vehicle: other) was 122 % of control. For the same molecule, the T/C (dose: 0.4 mg/kg/injection, schedule: Q12HX008 (ip), vehicle: other) was 115 % of control, the T/C (dose: 2.4 mg/kg/injection, schedule: Q01DX001 (ip), vehicle: other) was 122 % of control and the T/C (dose: 3.2 mg/kg/injection, schedule: Q01DX001 (ip), vehicle: other) was 119 % of control.

For `O=NN(CCCl)C(=O)N[C@H]1CCCC[C@@H]1Cl`, the T/C (dose: 5.0 mg/kg/injection, schedule: Q01DX001 (ip), vehicle: other) was 108 % of control and 121 % of control, the T/C [1] was 153 % of control and 160 % of control and the T/C [2] was 319 % of control. For the same molecule, the T/C [3] was 514 % of control, the T/C [4] was 95 % of control and the T/C (dose: 41.0 mg/kg/injection, schedule: Q01DX001 (ip), vehicle: other) was 558 % of control and 564 % of control. The T/C (dose: 45.0 mg/kg/injection, schedule: Q01DX001 (ip), vehicle: other) was 819 % of control, the T/C (dose: 45.0 mg/kg/injection, schedule: Q04DX004 (ip), vehicle: other) was 512 % of control and the T/C (dose: 75.0 mg/kg/injection, schedule: Q01DX001 (ip), vehicle: other) was 583 % of control and 650 % of control and 652 % of control. The T/C (dose: 83.0 mg/kg/injection, schedule: Q01DX001 (ip), vehicle: other) was 376 % of control and 553 % of control and the T/C [5] was 460 % of control.

In the case of `O=NN(CCCl)C(=O)NC1CCCC1`, the T/C (dose: 9.0 mg/kg/injection, schedule: Q01DX001 (ip), vehicle: saline) is reported as 106 % of control and 100 % of control, the T/C (dose: 19.0 mg/kg/injection, schedule: Q01DX001 (ip), vehicle: saline) is reported as 114 % of control and 119 % of control and the T/C (dose: 38.0 mg/kg/injection, schedule: Q01DX001 (ip), vehicle: saline) is reported as 160 % of control and 182 % of control. The T/C (dose: 75.0 mg/kg/injection, schedule: Q01DX001 (ip), vehicle: saline) was 174 % of control and 202 % of control and the T/C (dose: 150.0 mg/kg/injection, schedule: Q01DX001 (ip), vehicle: saline) was 212 % of control and 265 % of control.

For `CC1CCC(NC(=O)N(CCCl)N=O)CC1` (stereo not drawn), the T/C (dose: 5.0 mg/kg/injection, schedule: Q04DX004 (ip), vehicle: other) was 124 % of control, the T/C (dose: 5.4 mg/kg/injection, schedule: Q01DX001 (oral), vehicle: other) was 122 % of control and the T/C (dose: 8.6 mg/kg/injection, schedule: Q04DX004 (ip), vehicle: saline with Tween-80) was 187 % of control. For the same molecule, the T/C (dose: 10.0 mg/kg/injection, schedule: Q04DX004 (ip), vehicle: other) was 182 % of control, the T/C (dose: 10.7 mg/kg/injection, schedule: Q01DX001 (ip), vehicle: saline with Tween-80) was 152 % of control and 163 % of control and the T/C (dose: 12.0 mg/kg/injection, schedule: Q01DX001 (ip), vehicle: other) was 165 % of control. For the same molecule, the T/C (dose: 12.0 mg/kg/injection, schedule: Q01DX001 (oral), vehicle: other) was 164 % of control and 187 % of control, the T/C (dose: 13.0 mg/kg/injection, schedule: Q04DX004 (ip), vehicle: saline with Tween-80) was 849 % of control and 850 % of control and the T/C [1] was 352 % of control and 185 % of control and 332 % of control. For the same molecule, the T/C (dose: 15.0 mg/kg/injection, schedule: Q04DX004 (ip), vehicle: other) was 734 % of control, the T/C (dose: 16.0 mg/kg/injection, schedule: Q01DX001 (ip), vehicle: other) was 102 % of control and the T/C (dose: 16.0 mg/kg/injection, schedule: Q01DX001 (ip), vehicle: saline with Tween-80) was 189 % of control and 248 % of control. For the same molecule, the T/C (dose: 20.0 mg/kg/injection, schedule: Q01DX001 (ip), vehicle: other) was 532 % of control and 303 % of control and 326 % of control, the T/C [2] was 463 % of control and the T/C (dose: 20.0 mg/kg/injection, schedule: Q04DX004 (ip), vehicle: saline with Tween-80) was 983 % of control. The T/C (dose: 24.0 mg/kg/injection, schedule: Q01DX001 (ip), vehicle: other) was 153 % of control, the T/C (dose: 24.0 mg/kg/injection, schedule: Q01DX001 (ip), vehicle: saline with Tween-80) was 347 % of control and 453 % of control and the T/C (dose: 27.0 mg/kg/injection, schedule: Q01DX001 (oral), vehicle: other) was 590 % of control and 633 % of control and 818 % of control. For the same molecule, the T/C [3] was 683 % of control, the T/C [4] was 819 % of control and the T/C (dose: 35.0 mg/kg/injection, schedule: Q01DX001 (ip), vehicle: other) was 761 % of control. For the same molecule, the T/C (dose: 36.0 mg/kg/injection, schedule: Q01DX001 (ip), vehicle: other) was 153 % of control, the T/C (dose: 36.0 mg/kg/injection, schedule: Q01DX001 (ip), vehicle: saline with Tween-80) was 612 % of control and the T/C (dose: 36.0 mg/kg/injection, schedule: Q01DX001 (oral), vehicle: other) was 751 % of control and 753 % of control and 868 % of control. The T/C (dose: 40.0 mg/kg/injection, schedule: Q01DX001 (oral), vehicle: other) was 633 % of control and 786 % of control and 818 % of control, the T/C (dose: 45.0 mg/kg/injection, schedule: Q01DX001 (oral), vehicle: other) was 574 % of control and 600 % of control and the T/C (dose: 50.0 mg/kg/injection, schedule: Q01DX001 (ip), vehicle: other) was 542 % of control and 661 % of control. For the same molecule, the T/C (dose: 54.0 mg/kg/injection, schedule: Q01DX001 (ip), vehicle: other) was 202 % of control, the T/C (dose: 54.0 mg/kg/injection, schedule: Q01DX001 (ip), vehicle: saline with Tween-80) was 683 % of control and 875 % of control and the T/C (dose: 54.0 mg/kg/injection, schedule: Q01DX001 (oral), vehicle: other) was 810 % of control and 983 % of control and 179 % of control. For the same molecule, the T/C (dose: 55.0 mg/kg/injection, schedule: Q01DX001 (ip), vehicle: other) was 500 % of control and 295 % of control, the T/C (dose: 60.0 mg/kg/injection, schedule: Q01DX001 (ip), vehicle: saline with Tween-80) was 557 % of control and the T/C (dose: 60.0 mg/kg/injection, schedule: Q01DX001 (oral), vehicle: other) was 408 % of control and 434 % of control and 185 % of control. For the same molecule, the T/C (dose: 70.0 mg/kg/injection, schedule: Q01DX001 (ip), vehicle: other) was 433 % of control and 226 % of control, the T/C (dose: 71.0 mg/kg/injection, schedule: Q01DX001 (ip), vehicle: saline with Tween-80) was 156 % of control and 167 % of control and the T/C (dose: 80.0 mg/kg/injection, schedule: Q01DX001 (ip), vehicle: other) was 580 % of control and 171 % of control. For the same molecule, the T/C (dose: 81.0 mg/kg/injection, schedule: Q01DX001 (ip), vehicle: other) was 378 % of control [middle of 4 runs], the T/C (dose: 81.0 mg/kg/injection, schedule: Q01DX001 (ip), vehicle: saline with Tween-80) was 520 % of control and 719 % of control and the T/C [5] was 511 % of control. For the same molecule, the T/C (dose: 90.0 mg/kg/injection, schedule: Q01DX001 (oral), vehicle: other) was 372 % of control and 320 % of control, the T/C (dose: 91.0 mg/kg/injection, schedule: Q01DX001 (oral), vehicle: other) was 336 % of control and 513 % of control and 303 % of control and the T/C (dose: 100.0 mg/kg/injection, schedule: Q01DX001 (ip), vehicle: other) was 350 % of control. The T/C (dose: 107.0 mg/kg/injection, schedule: Q01DX001 (ip), vehicle: saline with Tween-80) was 201 % of control and 229 % of control, the T/C (dose: 110.0 mg/kg/injection, schedule: Q01DX001 (ip), vehicle: other) was 188 % of control and the T/C (dose: 120.0 mg/kg/injection, schedule: Q01DX001 (ip), vehicle: other) was 245 % of control. The T/C (dose: 160.0 mg/kg/injection, schedule: Q01DX001 (ip), vehicle: saline with Tween-80) was 392 % of control and 248 % of control, the T/C (dose: 240.0 mg/kg/injection, schedule: Q01DX001 (ip), vehicle: saline with Tween-80) was 556 % of control and the T/C (dose: 360.0 mg/kg/injection, schedule: Q01DX001 (ip), vehicle: saline with Tween-80) was 194 % of control and 263 % of control. For the same molecule, the T/C (dose: 540.0 mg/kg/injection, schedule: Q01DX001 (ip), vehicle: saline with Tween-80) was 173 % of control.
